Source: US10280163B2 (BeiGene, Ltd., priority 2015, dated 2019)
Where a name gives a salt, the structure may show the parent alone. Read-outs that look alike come from different tables or passages of the source.

Columns and labels:
[1] = target: T1, cellular IDO1 in HeLa cells (Homo sapiens, UniProt P14902); assay: HeLa cell-based IDO1 Kyn (kynurenine) production assay; conditions: IFN-γ 100 ng/mL, 48 hours
T1 construct: endogenous in cells; host or cells: HeLa cells (American Type Tissue Culture Collection), induced with human recombinant IFN-γ
T1 sequence (P14902 whole entry): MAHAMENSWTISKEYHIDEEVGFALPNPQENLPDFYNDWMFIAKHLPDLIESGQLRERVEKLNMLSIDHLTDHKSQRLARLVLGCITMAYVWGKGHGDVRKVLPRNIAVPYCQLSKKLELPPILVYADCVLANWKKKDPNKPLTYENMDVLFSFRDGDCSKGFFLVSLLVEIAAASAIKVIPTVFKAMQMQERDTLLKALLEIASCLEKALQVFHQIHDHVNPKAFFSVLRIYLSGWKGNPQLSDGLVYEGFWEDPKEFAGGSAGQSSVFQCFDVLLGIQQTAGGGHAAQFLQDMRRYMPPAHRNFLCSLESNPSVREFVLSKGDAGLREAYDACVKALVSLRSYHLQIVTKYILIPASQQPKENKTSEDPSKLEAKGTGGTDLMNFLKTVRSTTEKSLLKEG
Description: HeLa Cell-Based IDO1 Kyn (Kynurenine) Production Assay:
The inhibitory activity of IDO1 inhibitors is determined by using a colorimetric reaction to measure Kyn generated from L-Trp (L-Tryptophon) oxidation by cellular IDO1 in HeLa cells after induction of IDO1 by IFN-γ.
Hela cells were obtained from the American Type Tissue Culture Collection and recovered in 10% FBS-containing phenol red-free DMEM medium supplemented with 0.4 mM L-Trp. Cells were plated onto a 96-well plate (100 μl/well) at 8000 cells per well. Human recombinant IFN-γ (8901SC, CST) was added to cells (final concentration 100 ng/mL) to stimulate endogenous IDO1. Compounds at different concentrations diluted in dimethylsulfoxide (DMSO) were added simultaneously with IFN-γ. Cells were kept at 37° C. in a humidified incubator supplied with 5% CO2. After 48 hours of incubation, 100 μl supernatant from each well was removed to a new plate. The protein in the medium was precipitated with the addition of 8 μl 6N trichloroacetic acid. The plate was incubated at 60° C. for 45 min and then centrifugation at 2500 rpm for 10 min to remove sediments. 80 μl supernatants were carefully removed to a new clean plate and added with an equal volume of 2% 4-(Dimethylamino) benzaldehyde (D2004, sigma) dissolved in glacial acetic acid. The absorbance at 480 nm wavelength derived from Kyn was measured using a FULOstar OMEGA plate reader (BMG LABTECH). The IC50 for each compound was derived from fitting the dose-response data to the four-parameter logistic model by using Graphpad Prism software.

Recombinant IDO1 = target: T2, Recombinant IDO1 (Homo sapiens, UniProt P14902); assay: IDO1 enzymatic assay; assay type: biochemical; conditions: 50 nM IDO1, 1.3 mM D-tryptophan, read-out: Enzyme IC50 (nM) IDO1
T2 construct: His tag (N); made in house; host or cells: E. coli
T2 sequence (P14902 whole entry): as above
Description: Recombinant IDO1 was overexpressed and purified from E. coli cells with an N-terminal His tag. IDO1 enzymatic assay was carried out using a methodology similar to described in the literature (J. Biol. Chem. (1980), 255, 1339-1345.). The reaction mixture contains 50 nM IDO1, 1.3 mM D-tryptophan, 5 mM L-ascorbic acid, 6.25 μM methylene Blue, 0.4 mg/mL catalase and compound (or DMSO) in a buffer containing 50 mM potassium phosphate pH 7.5 and 0.1% BSA. After incubation at 24° C. for 1.5 hours, absorbance of the reaction mixture was continuously read at 321 nm to monitor the formation of N′-formylkynurenine by a FULOstar OMEGA plate reader (BMG LABTECH) for 1 hour. The enzymatic activity was determined by measuring the slope of the linear absorbance increase as a function of time. The IC50s are calculated based on remaining enzyme activity in the presence of increasing concentrations of compounds.

[2] = Table 2, 8-substituted imidazo[1,5-a]pyridines
[3] = Table 1, 5-substituted imidazo[1,5-a]pyridines

CC(C)c1ccn2cncc2c1C(O)C1CCCCC1 (single isomer, unassigned) [Example B106a] was tested, and the EC50 [1, 2] was 0.129 µM and the IC50 (Recombinant IDO1; [2]) was 23 nM.
For NCC(=O)N1CCCC(C(O)c2c(C3CC3)ccn3cncc23)C1 (stereo not shown) [Example B132, 2-Amino-1-(3-((7-cyclopropylimidazo[1,5-a]pyridin-8-yl)(hydroxy)methyl)piperidin-1-yl)ethan-1-one], the EC50 [1, 2] was over 10 µM and the IC50 (Recombinant IDO1; [2]) was 13000 nM.
Compound CC(C)C(O)c1cccc2cncn12 (stereo not shown) [Example A005, 1-(imidazo[1,5-a]pyridin-5-yl)-2-methylpropan-1-ol] has an EC50 [1, 3] of over 10 µM and an IC50 (Recombinant IDO1; [3]) of 1500 nM.
For OC(c1c(C2CC2)ccn2cncc12)C1CCC(c2ccccc2)CC1 (single isomer, unassigned) [Example B143a, (S)-(7-cyclopropylimidazo[1,5-a]pyridin-8-yl)(trans or cis-4-phenylcyclohexyl)methanol], the EC50 [1, 2] was 0.079 µM and the IC50 (Recombinant IDO1; [2]) was 56 nM.
OC(c1c([C@H]2C[C@H]2F)ccn2cncc12)C1CCCCC1 (relative stereo) [Example B126a, cyclohexyl(7-(cis-2-fluorocyclopropyl)imidazo [1,5-a]pyridin-8-yl)methanol] was tested, and the EC50 [1, 2] was 0.942 µM and the IC50 (Recombinant IDO1; [2]) was 340 nM.
In the case of OC1CCCC(C(O)c2c(C3CC3)ccc3cncn23)C1 (racemic) [Example A164c, 3-((6-Cyclopropylimidazo[1,5-a]pyridin-5-yl)(hydroxy)methyl)cyclohexan-1-ol], the EC50 [1, 3] is reported as 0.57 µM and the IC50 (Recombinant IDO1; [3]) is reported as 54 nM.
With OC(c1c(C(F)(F)F)ccn2cncc12)C1CCCCC1 (stereo not shown) [Example B111, Cyclohexyl(7-(trifluoromethyl)imidazo[1,5-a]pyridin-8-yl)methanol] the EC50 [1, 2] was 0.415 µM and the IC50 (Recombinant IDO1; [2]) was 85 nM.
CC(=O)N1CCCC(C(O)c2c(C3CC3)ccn3cncc23)C1 (single isomer, unassigned) [Example B133a, 1-(3-((7-Cyclopropylimidazo[1,5-a]pyridin-8-yl)(hydroxy)methy)piperidin-1-yl)ethan-1-one] gave an EC50 [1, 2] of over 10 µM and an IC50 (Recombinant IDO1; [2]) of 1900 nM.
CC(O)(CC1CCCCC1)c1cccn2cncc12 (stereo not shown) [Example B009, 1-cyclohexyl-2-(imidazo[1,5-a]pyridin-8-yl)propan-2-ol] was tested, and the EC50 [1, 2] was over 10 µM and the IC50 (Recombinant IDO1; [2]) was 18000 nM.
In the case of CC(C)c1ccn2cncc2c1C(O)[C@H]1CC[C@@H](O)CC1 (single isomer, unassigned) [Example B121d], the EC50 [1, 2] is reported as over 10 µM and the IC50 (Recombinant IDO1; [2]) is reported as 46000 nM.
Work on O=C(NC1CC1)c1cccc(C(O)c2c(C3CC3)ccc3cncn23)c1 (stereo not shown) [Example A160, N-cyclopropyl-3-((6-cyclopropylimidazo[1,5-a]pyridin-5-yl)(hydroxy)methyl)benzamide] yielded an EC50 [1, 3] of 5.61 µM and an IC50 (Recombinant IDO1; [3]) of 81 nM.
CC(=O)N1CCCC(C(O)c2c(C3CC3)ccn3cncc23)C1 (single isomer, unassigned) [Example B133b, 1-(3-((7-Cyclopropylimidazo[1,5-a]pyridin-8-yl)(hydroxy)methy)piperidin-1-yl)ethan-1-one] showed an EC50 [1, 2] of 6.81 µM and an IC50 (Recombinant IDO1; [2]) of 1100 nM.
OC(c1cccc2cncn12)C1CCCC1 (stereo not shown) [Example A002, cyclopentyl(imidazo[1,5-a]pyridin-5-yl)methanol] showed an IC50 (Recombinant IDO1; [3]) of 150 nM.
Compound CN1CCC(C(O)c2cccc3cncn23)CC1 (stereo not shown) [Example A014, Imidazo[1,5-a]pyridin-5-yl(1-methylpiperidin-4-yl)methanol] has an IC50 (Recombinant IDO1; [3]) of over 100000 nM.
In the case of OC(c1c(C2=CCCC2)ccc2cncn12)C1CCCCC1 (stereo not shown) [Example A157, cyclohexyl(6-(cyclopent-1-en-1-yl)imidazo[1,5-a]pyridin-5-yl)methanol], the EC50 [1, 3] is reported as 2.68 µM and the IC50 (Recombinant IDO1; [3]) is reported as 200 nM.
Work on CC(C)(C)OC(=O)NCC(=O)N1CCCC(C(O)c2c(C3CC3)ccn3cncc23)C1 (stereo not shown) [Example B131, tert-Butyl (2-(3-((7-cyclopropylimidazo[1,5-a]pyridin-8-yl)(hydroxy)methyl)piperidin-1-yl)-2-oxoethyl) carbamate] yielded an EC50 [1, 2] of over 10 µM and an IC50 (Recombinant IDO1; [2]) of 1700 nM.
OC(Cc1ccccc1)c1cccc2cncn12 (stereo not shown) [Example A019, 1-(imidazo[1,5-a]pyridin-5-yl)-2-phenylethan-1-ol] was tested, and the IC50 (Recombinant IDO1; [3]) was 21000 nM.
OC(CC1CCCCC1)c1c(C2CC2)ccn2cncc12 (single isomer, unassigned) [Example B110b] gave an EC50 [1, 2] of over 10 µM and an IC50 (Recombinant IDO1; [2]) of 4.9 nM.
With OC(c1cccc2cncn12)C1CCOCC1 (stereo not shown) [Example A010, imidazo[1,5-a]pyridin-5-yl(tetrahydro-2H-pyran-4-yl)methanol] the IC50 (Recombinant IDO1; [3]) was 3100 nM.
Work on CCOC(COCC1(C(O)c2c(C3CC3)ccn3cncc23)CCCCC1)OCC (stereo not shown) [Example B137, (7-Cyclopropylimidazo[1,5-a]pyridin-8-yl)(1-((2,2-diethoxyethoxy)methyl)cyclohexyl)methanol] yielded an EC50 [1, 2] of 3.29 µM and an IC50 (Recombinant IDO1; [2]) of 2200 nM.
O=C(NC1CC1)c1cccc(C(O)c2c(C3CC3)ccn3cncc23)c1 (stereo not shown) [Example B125, N-cyclopropyl-3-((7-cyclopropylimidazo[1,5-a]pyridin-8-yl)(hydroxy)methyl)benzamide] showed an EC50 [1, 2] of 8.5 µM and an IC50 (Recombinant IDO1; [2]) of 170 nM.
OC(c1c(C2CC2)ccn2cncc12)[C@H]1CC[C@@H](O)CC1 (single isomer, unassigned) [Example B119d] gave an EC50 [1, 2] of 2.99 µM and an IC50 (Recombinant IDO1; [2]) of 110 nM.
Work on OC(CC1CC1)c1cccn2cncc12 (stereo not shown) [Example B007, 2-cyclopropyl-1-(imidazo[1,5-a]pyridin-8-yl)ethan-1-ol] yielded an EC50 [1, 2] of over 10 µM and an IC50 (Recombinant IDO1; [2]) of 6600 nM.
Compound OC1CCCC(C(O)c2c(C3CC3)ccc3cncn23)C1 (stereo not shown) [Example A164b, 3-((6-Cyclopropylimidazo[1,5-a]pyridin-5-yl)(hydroxy)methyl)cyclohexan-1-ol] has an EC50 [1, 3] of 0.226 µM and an IC50 (Recombinant IDO1; [3]) of 42 nM.
In the case of NS(=O)(=O)N1CCCC(C(O)c2c(C3CC3)ccn3cncc23)C1 (single isomer, unassigned) [Example B135a, 3-((7-Cyclopropylimidazo[1,5-a]pyridin-8-yl)(hydroxy)methyl)piperidine-1-sulfonamide], the EC50 [1, 2] is reported as over 10 µM and the IC50 (Recombinant IDO1; [2]) is reported as 1100 nM.
Work on OC(c1cccc2cncn12)C1CCC1 (stereo not shown) [Example A018, cyclobutyl(imidazo[1,5-a]pyridin-5-yl)methanol] yielded an IC50 (Recombinant IDO1; [3]) of 1800 nM.
Work on OC(c1cccc2cncn12)C1CC1 (stereo not shown) [Example A003, cyclopropyl(imidazo[1,5-a]pyridin-5-yl)methanol] yielded an IC50 (Recombinant IDO1; [3]) of 3800 nM.
With CC(O)c1cccc2cncn12 (stereo not shown) [Example A017, 1-(imidazo[1,5-a]pyridin-5-yl)ethan-1-ol] the IC50 (Recombinant IDO1; [3]) was 62000 nM.
With OC(c1ccc(Cl)c2cncn12)C1CCCCC1 (stereo not shown) [Example A024, (8-chloroimidazo[1,5-a]pyridin-5-yl)(cyclohexyl)methanol] the IC50 (Recombinant IDO1; [3]) was 3300 nM.
OC(c1ccccc1)c1cccc2cncn12 (stereo not shown) [Example A007, imidazo[1,5-a]pyridin-5-yl(phenyl)methanol] was tested, and the IC50 (Recombinant IDO1; [3]) was 5100 nM.
Compound OC(c1cccc2cncn12)C1CCCCC1 (single isomer, unassigned) [Example A001b] has an IC50 (Recombinant IDO1; [3]) of 11000 nM.
With OC(c1cccc2cncn12)C1CCNCC1 (stereo not shown) [Example A013, Imidazo[1,5-a]pyridin-5-yl(piperidin-4-yl)methanol hydrochloride] the IC50 (Recombinant IDO1; [3]) was over 100000 nM.
CC(C)(C)OC(=O)N1CCC(C(=O)c2cccc3cncn23)CC1 [Example A011, Tert-butyl 4-(imidazo[1,5-a]pyridine-5-carbonyl)piperidine-1-carboxylate] gave an IC50 (Recombinant IDO1; [3]) of over 100000 nM.
For C#CC(O)c1cccc2cncn12 (stereo not shown) [Example A006, 1-(imidazo[1,5-a]pyridin-5-yl)prop-2-yn-1-ol], the IC50 (Recombinant IDO1; [3]) was 4600 nM.
In the case of OC(c1ccc(Br)c2cncn12)C1CCCCC1 (stereo not shown) [Example A023, (8-bromoimidazo[1,5-a]pyridin-5-yl)(cyclohexyl)methanol], the IC50 (Recombinant IDO1; [3]) is reported as 6500 nM.
O=C(c1ccccc1)c1cccn2cncc12 [Example B003, Imidazo[1,5-a]pyridin-8-yl(phenyl)methanone] was tested, and the IC50 (Recombinant IDO1; [2]) was over 100000 nM.
In the case of CC(C)(C)OC(=O)N1CCC(C(O)c2cccc3cncn23)CC1 (stereo not shown) [Example A012, Tert-butyl 4-(hydroxy(imidazo[1,5-a]pyridin-5-yl)methyl)piperidine-1-carboxylate], the IC50 (Recombinant IDO1; [3]) is reported as 41000 nM.
